These results are taken from ChEMBL document CHEMBL4184158, “Azolylthioacetamides as a potent scaffold for the development of metallo-β-lactamase inhibitors” (Bioorg Med Chem Lett, 2017).

pIC50: −log10 of the molar value. Activity calls are given as the source filed them.

The subject of one assay is Escherichia coli. Description: Antibacterial activity against Escherichia coli BL21(DE3) at 16 ug/ml after 20 hrs by broth microdilution assay. The class given is functional, organism-based.
Assay [1] concerns Bacteria. Description: Inhibition of bacterial NDM1 expressed in Escherichia coli BL21 (DE3) transformed cells assessed as potentiation of imipenem-induced antibacterial activity by measuring imipenem MIC after 20 hrs by broth microdilution assay (reference value: 16 ug/ml). Background: Broth dilution looks for growth in wells or tubes with falling amounts of substance.
The test system of assay [2] is Bacteria. Briefly: Competitive inhibition of bacterial NDM-1 expressed in Escherichia coli BL21 (DE3) transformed cells using imipenem as substrate after 5 mins by Lineweaver-Burk plot method.
The subject of assay [3] is Bacteria. Description: Inhibition of bacterial ImiS expressed in Escherichia coli BL21 (DE3) transformed cells assessed as potentiation of imipenem-induced antibacterial activity by measuring imipenem MIC after 20 hrs by broth microdilution assay (reference value: 1 ug/ml).
A short description of assay [4]: Inhibition of bacterial NDM1 expressed in Escherichia coli DH5R transformed cells using imipenem as substrate by UV spectrometry. Also noted: species or system Bacteria.
For assay [5], the system named is Bacteria. Briefly: Inhibition of bacterial ImiS expressed in Escherichia coli BL21 (DE3) transformed cells at 500 uM using imipenem as substrate by UV spectrometry.
Assay [6] deals with Bacteria. Briefly: Uncompetitive inhibition of bacterial NDM-1 expressed in Escherichia coli BL21 (DE3) transformed cells using imipenem as substrate after 5 mins by Lineweaver-Burk plot method.
Assay [7] relates to Bacteria. Briefly: Inhibition of bacterial metallo-beta-lactamase L1 expressed in Escherichia coli […] cells at 500 uM using imipenem as substrate by UV spectrometry.

As a reminder, the MIC is the smallest concentration in the dilution series that meets the test's criterion for growth inhibition. Broadly, the pIC50 is −log10 of the IC50, conventionally taken in molar units. As to `Nc1ccccc1-c1nnc(SCC(=O)Nc2nc3ccc([N+](=O)[O-])cc3[nH]2)[nH]1`, the result in the assay with Escherichia coli was inactive. Moreover, the MIC was found to be 4 µg/mL in the assay with Bacteria [1] and 1 µg/mL in the assay with Bacteria [3]. Besides, the Kic in the assay on Bacteria [2] worked out at 550 nM. In addition, the pIC50 in assay [4] is 6.77. Further, the inhibition entry with Bacteria [5] and in the assay with Bacteria [7] was “inactive” in each case. In the assay with Bacteria [6], this molecule displayed a Kiuc of 310 nM.
